According to the NIST ThermoML archive (doi:10.1016/j.fluid.2016.06.054):
Numbers after ± are expanded uncertainties.

Experiment: molar heat capacity at constant pressure
Conditions: Liquid, Flow calorimetry

For `CC(=O)[O-].CCCCCCn1cc[n+](C)c1` [3-hexyl-1-methylimidazolium acetate], the “molar heat capacity at constant pressure” value (308.3 K, 100 kPa) was 446.98 ± 9 J/K/mol, the “molar heat capacity at constant pressure” value (308.6 K, 3940 kPa) was 445.51 ± 8.9 J/K/mol and the “molar heat capacity at constant pressure” value (308.7 K, 7930 kPa) was 444.39 ± 8.9 J/K/mol. The “molar heat capacity at constant pressure” value (308.7 K, 11720 kPa) was 442.98 ± 8.9 J/K/mol, the “molar heat capacity at constant pressure” value (308.8 K, 16020 kPa) was 442.23 ± 8.9 J/K/mol and the “molar heat capacity at constant pressure” value (317.5 K, 100 kPa) was 451.85 ± 9.1 J/K/mol. For the same molecule, the “molar heat capacity at constant pressure” value (317.5 K, 4020 kPa) was 450.18 ± 9 J/K/mol, the “molar heat capacity at constant pressure” value (317.6 K, 8080 kPa) was 449.27 ± 9 J/K/mol and the “molar heat capacity at constant pressure” value (317.8 K, 12320 kPa) was 448.43 ± 9 J/K/mol. The “molar heat capacity at constant pressure” value (317.9 K, 16210 kPa) was 447.35 ± 9 J/K/mol, the “molar heat capacity at constant pressure” value (327.4 K, 100 kPa) was 455.72 ± 9.1 J/K/mol and the “molar heat capacity at constant pressure” value (327.5 K, 4030 kPa) was 454.06 ± 9.1 J/K/mol. For the same molecule, the “molar heat capacity at constant pressure” value (327.7 K, 8190 kPa) was 452.63 ± 9.1 J/K/mol, the “molar heat capacity at constant pressure” value (327.8 K, 12480 kPa) was 451.08 ± 9 J/K/mol and the “molar heat capacity at constant pressure” value (327.8 K, 16220 kPa) was 450.18 ± 9 J/K/mol. For the same molecule, the “molar heat capacity at constant pressure” value (337.2 K, 100 kPa) was 460.35 ± 9.2 J/K/mol, the “molar heat capacity at constant pressure” value (337.3 K, 4120 kPa) was 458.97 ± 9.2 J/K/mol and the “molar heat capacity at constant pressure” value (337.7 K, 8030 kPa) was 457.41 ± 9.2 J/K/mol. For the same molecule, the “molar heat capacity at constant pressure” value (337.8 K, 12180 kPa) was 456.32 ± 9.2 J/K/mol, the “molar heat capacity at constant pressure” value (338 K, 16110 kPa) was 454.87 ± 9.1 J/K/mol and the “molar heat capacity at constant pressure” value (345.9 K, 100 kPa) was 466.57 ± 9.4 J/K/mol. For the same molecule, the “molar heat capacity at constant pressure” value (346.2 K, 4120 kPa) was 465.32 ± 9.3 J/K/mol, the “molar heat capacity at constant pressure” value (346.3 K, 8170 kPa) was 463.82 ± 9.3 J/K/mol and the “molar heat capacity at constant pressure” value (346.5 K, 12410 kPa) was 462.14 ± 9.3 J/K/mol. The “molar heat capacity at constant pressure” value (346.8 K, 16130 kPa) was 460.75 ± 9.2 J/K/mol, the “molar heat capacity at constant pressure” value (355.3 K, 100 kPa) was 472.17 ± 9.5 J/K/mol and the “molar heat capacity at constant pressure” value (355.6 K, 4120 kPa) was 470.85 ± 9.4 J/K/mol. The “molar heat capacity at constant pressure” value (355.7 K, 8010 kPa) was 469.29 ± 9.4 J/K/mol, the “molar heat capacity at constant pressure” value (355.9 K, 12430 kPa) was 468.34 ± 9.4 J/K/mol and the “molar heat capacity at constant pressure” value (356.1 K, 16130 kPa) was 466.81 ± 9.4 J/K/mol. The “molar heat capacity at constant pressure” value (365 K, 7990 kPa) was 476.86 ± 9.6 J/K/mol, the “molar heat capacity at constant pressure” value (365.1 K, 12180 kPa) was 475.05 ± 9.5 J/K/mol and the “molar heat capacity at constant pressure” value (365.4 K, 16100 kPa) was 473.57 ± 9.5 J/K/mol. The “molar heat capacity at constant pressure” value (365.7 K, 100 kPa) was 479.8 ± 9.6 J/K/mol, the “molar heat capacity at constant pressure” value (365.8 K, 4110 kPa) was 478.25 ± 9.6 J/K/mol and the “molar heat capacity at constant pressure” value (374 K, 100 kPa) was 485.51 ± 9.7 J/K/mol. The “molar heat capacity at constant pressure” value (374.2 K, 4020 kPa) was 483.86 ± 9.7 J/K/mol, the “molar heat capacity at constant pressure” value (374.4 K, 8100 kPa) was 482.22 ± 9.7 J/K/mol and the “molar heat capacity at constant pressure” value (374.7 K, 12380 kPa) was 480.71 ± 9.6 J/K/mol. The “molar heat capacity at constant pressure” value (375 K, 16130 kPa) was 479.24 ± 9.6 J/K/mol, the “molar heat capacity at constant pressure” value (383.9 K, 100 kPa) was 491.39 ± 9.8 J/K/mol and the “molar heat capacity at constant pressure” value (384.1 K, 4100 kPa) was 490.53 ± 9.8 J/K/mol. The “molar heat capacity at constant pressure” value (384.3 K, 7960 kPa) was 489.08 ± 9.8 J/K/mol, the “molar heat capacity at constant pressure” value (384.4 K, 12530 kPa) was 487.97 ± 9.8 J/K/mol and the “molar heat capacity at constant pressure” value (384.5 K, 16010 kPa) was 486.3 ± 9.8 J/K/mol. The “molar heat capacity at constant pressure” value (394.9 K, 100 kPa) was 496.24 ± 9.9 J/K/mol, the “molar heat capacity at constant pressure” value (395.1 K, 4070 kPa) was 494.51 ± 9.9 J/K/mol and the “molar heat capacity at constant pressure” value (395.1 K, 8360 kPa) was 493.11 ± 9.9 J/K/mol. The “molar heat capacity at constant pressure” value (395.2 K, 12770 kPa) was 491.91 ± 9.9 J/K/mol and the “molar heat capacity at constant pressure” value (395.4 K, 16400 kPa) was 490.48 ± 9.8 J/K/mol.
With `CC(=O)[O-].CCn1cc[n+](C)c1` [1-ethyl-3-methylimidazolium acetate] the “molar heat capacity at constant pressure” value (303.15 K, 100 kPa) was 325.25 ± 6.5 J/K/mol, the “molar heat capacity at constant pressure” value (303.17 K, 4020 kPa) was 324.22 ± 6.5 J/K/mol and the “molar heat capacity at constant pressure” value (303.21 K, 8050 kPa) was 322.31 ± 6.5 J/K/mol. For the same molecule, the “molar heat capacity at constant pressure” value (303.25 K, 12080 kPa) was 321.03 ± 6.4 J/K/mol, the “molar heat capacity at constant pressure” value (303.27 K, 16030 kPa) was 319.45 ± 6.4 J/K/mol and the “molar heat capacity at constant pressure” value (313.25 K, 100 kPa) was 329.51 ± 6.6 J/K/mol. The “molar heat capacity at constant pressure” value (313.37 K, 4110 kPa) was 327.89 ± 6.6 J/K/mol, the “molar heat capacity at constant pressure” value (313.42 K, 8060 kPa) was 327.03 ± 6.6 J/K/mol and the “molar heat capacity at constant pressure” value (313.45 K, 12060 kPa) was 326.25 ± 6.5 J/K/mol. For the same molecule, the “molar heat capacity at constant pressure” value (313.49 K, 16090 kPa) was 325.87 ± 6.5 J/K/mol, the “molar heat capacity at constant pressure” value (323.16 K, 100 kPa) was 332.22 ± 6.7 J/K/mol and the “molar heat capacity at constant pressure” value (323.22 K, 4040 kPa) was 330.61 ± 6.6 J/K/mol. The “molar heat capacity at constant pressure” value (323.28 K, 8020 kPa) was 329.03 ± 6.6 J/K/mol, the “molar heat capacity at constant pressure” value (323.31 K, 12070 kPa) was 327.19 ± 6.6 J/K/mol and the “molar heat capacity at constant pressure” value (323.34 K, 16130 kPa) was 326.51 ± 6.5 J/K/mol. The “molar heat capacity at constant pressure” value (333.42 K, 100 kPa) was 337.87 ± 6.8 J/K/mol, the “molar heat capacity at constant pressure” value (333.48 K, 4080 kPa) was 336.14 ± 6.7 J/K/mol and the “molar heat capacity at constant pressure” value (333.52 K, 8030 kPa) was 334.67 ± 6.7 J/K/mol. For the same molecule, the “molar heat capacity at constant pressure” value (333.59 K, 12010 kPa) was 333.16 ± 6.7 J/K/mol, the “molar heat capacity at constant pressure” value (333.61 K, 16090 kPa) was 331.41 ± 6.7 J/K/mol and the “molar heat capacity at constant pressure” value (343.76 K, 100 kPa) was 341.44 ± 6.8 J/K/mol. For the same molecule, the “molar heat capacity at constant pressure” value (343.82 K, 4020 kPa) was 340.21 ± 6.8 J/K/mol, the “molar heat capacity at constant pressure” value (343.85 K, 8030 kPa) was 338.53 ± 6.8 J/K/mol and the “molar heat capacity at constant pressure” value (343.92 K, 12050 kPa) was 337.42 ± 6.8 J/K/mol. The “molar heat capacity at constant pressure” value (343.98 K, 16050 kPa) was 336.01 ± 6.7 J/K/mol, the “molar heat capacity at constant pressure” value (354.29 K, 100 kPa) was 345.18 ± 6.9 J/K/mol and the “molar heat capacity at constant pressure” value (354.33 K, 4060 kPa) was 343.89 ± 6.9 J/K/mol. The “molar heat capacity at constant pressure” value (354.38 K, 8020 kPa) was 342.02 ± 6.9 J/K/mol, the “molar heat capacity at constant pressure” value (354.46 K, 12080 kPa) was 340.87 ± 6.8 J/K/mol and the “molar heat capacity at constant pressure” value (354.52 K, 16090 kPa) was 339.03 ± 6.8 J/K/mol. For the same molecule, the “molar heat capacity at constant pressure” value (363.65 K, 100 kPa) was 348.36 ± 7 J/K/mol, the “molar heat capacity at constant pressure” value (363.67 K, 4050 kPa) was 346.97 ± 7 J/K/mol and the “molar heat capacity at constant pressure” value (363.72 K, 8060 kPa) was 345.19 ± 6.9 J/K/mol. For the same molecule, the “molar heat capacity at constant pressure” value (363.78 K, 12070 kPa) was 344.06 ± 6.9 J/K/mol, the “molar heat capacity at constant pressure” value (363.82 K, 16030 kPa) was 342.91 ± 6.9 J/K/mol and the “molar heat capacity at constant pressure” value (374.02 K, 100 kPa) was 353.57 ± 7.1 J/K/mol. The “molar heat capacity at constant pressure” value (374.09 K, 4070 kPa) was 352.06 ± 7.1 J/K/mol, the “molar heat capacity at constant pressure” value (374.11 K, 8010 kPa) was 350.13 ± 7 J/K/mol and the “molar heat capacity at constant pressure” value (374.15 K, 12150 kPa) was 348.47 ± 7 J/K/mol. The “molar heat capacity at constant pressure” value (374.18 K, 16110 kPa) was 347.01 ± 7 J/K/mol, the “molar heat capacity at constant pressure” value (383.41 K, 100 kPa) was 357.23 ± 7.2 J/K/mol and the “molar heat capacity at constant pressure” value (383.46 K, 4080 kPa) was 355.56 ± 7.1 J/K/mol. For the same molecule, the “molar heat capacity at constant pressure” value (383.51 K, 8040 kPa) was 354.44 ± 7.1 J/K/mol, the “molar heat capacity at constant pressure” value (383.53 K, 12090 kPa) was 353.71 ± 7.1 J/K/mol and the “molar heat capacity at constant pressure” value (383.55 K, 16050 kPa) was 352.62 ± 7.1 J/K/mol. The “molar heat capacity at constant pressure” value (393.22 K, 100 kPa) was 362.22 ± 7.3 J/K/mol, the “molar heat capacity at constant pressure” value (393.26 K, 4030 kPa) was 361.14 ± 7.2 J/K/mol and the “molar heat capacity at constant pressure” value (393.31 K, 8070 kPa) was 359.92 ± 7.2 J/K/mol. The “molar heat capacity at constant pressure” value (393.33 K, 12140 kPa) was 358.14 ± 7.2 J/K/mol and the “molar heat capacity at constant pressure” value (393.35 K, 16090 kPa) was 356.53 ± 7.2 J/K/mol.
